“And” between values parts separate entries of the source, which are not always exact repeats. Equal entries are not always repeated. “Also recorded” adds a separate entry of the source.
What was measured:
[1] = system: DNMT-3b; experiment: DNMT-3b mRNA level by RT-PCR in PyMT tumor cells; type: cell-based, mouse; settings: PyMT tumor cells in culture
Method: (§1) Because DSP is regulated by ER/PR expression, and because late-stage PyMT tumors lose ER/PR-positivity and heavily metastasize to the lymph nodes and lungs (Lin et al., 2003), the effects of AKB-6899 on more global events that regulate gene expression was evaluated. PyMT tumor cells in culture were treated with DMSO or AKB-6899. Methylation-specific PCR for CpG islands in the desmoplakin promoter were performed. […] Trypan Blue confirmed no cell death in AKB-6899 treated cells when compared to control cells. The experiment was repeated and RNA was isolated from the cells. RT-PCR was performed and the regulation of DNA methyltransferases (DNMTs) was evaluated. […] (FIG. 1A). The decrease in mRNA levels of DNMT-1 and DNMT-3a increased the mRNA level of DSP (FIG. 4A) and increased desmoplakin protein expression (FIG. 5A).

[2] = system: desmoplakin (DSP) gene promoter; experiment: Methylation-specific PCR of DSP promoter in MDA-MB-231 cells; type: cell-based, human
Method: FIGS. 3A-3E show the effect of AKB-6899 (25 μM) on methylation of the desmoplakin (DSP) gene promoter in PyMT breast cancer cells (3A), human MDA-MB-231 triple negative breast cancer cells (3B), human C8161.9 melanoma cells (3C), and human MCF-7 breast cancer cells (3D). In FIG. 3A, the DSP promoter was 100% unmethylated (AKB-6899) vs. 99.99% methylated (vehicle). In FIG. 3B, the DSP promoter was 99.62% unmethylated (AKB-6899) v. 99.89% (vehicle). In FIG. 3C, the DSP promoter was 99.90% unmethylated (AKB-6899) v. 42.04% (vehicle). In FIG. 3D, the DSP promoter was 92.48% unmethylated (AKB-6899) v. 98.48% (vehicle). In FIG. 3E, when compared to the vehicle (DMSO), treatment of PyMT cells with AKB-6899 increased DSP expression.
To determine whether the decrease in DNMT expression and the increase in DSP expression were relevant in human cancer, the level of desmoplakin expression in MDA-MB-231 human triple negative breast cancer cells was determined. […] (FIG. 3B).

[3] = system: desmoplakin (DSP) mRNA; experiment: Desmoplakin mRNA expression in PyMT tumors of tumor-bearing mice; type: in vivo, mouse
Source text: FIGS. 4A-4B show desmoplakin mRNA expression in vitro and in vivo.
Desmoplakin (DSP) is the major protein component of the desmosome located in the inner membrane of epithelial cells where it binds desmosomal cadherins to maintain cell-to-cell adhesion. DSP is regulated by ER/PR expression (Maynadier et al. 2012; Ahmed et al., 1995; Pang et al., 2004). Clinically, expression of DSP is higher in normal mammary epithelium. Loss of DSP correlates with less differentiated breast tumors and increased lymph node involvement. […] Functional desmoplakin that is incorporated into the desmosome is not phosphorylated at serine 165/166. Phosphorylation at ser165/166 by protein kinase C (PKC) causes desmoplakin to disassemble from the desmosome. The loss of desmosome function and decreased adherence junctions are markers that can inform tumor staging, prognosis, and treatment planning as this transition eliminates therapeutic effectiveness and increases the likelihood of poor clinical outcome (Dusek et al., 2011). Further, loss of DSP is a marker in the Epithelial-to-Mesenchymal Transition (EMT) process as it binds to adherence proteins that also translocate to the nucleus and activate the Wnt/β-catenin pathway (Yang et al., 2012).
The gene expression signatures from the tumors of PyMT breast tumor-bearing mice that were treated with either vehicle or AKB-6899 were evaluated. […]

[4] = system: c-Myc promoter; experiment: Percent CpG methylation of c-Myc promoter in HeLa cells; type: cell-based, human; settings: 5 or 25 μM, compared to DMSO and PBA (FIG. 6A)
Method: HeLa cervical cancer cells were left untreated, were treated with DMSO, were treated with 5-AZA, were treated with AKB-6899 (5 or 25 μM), or were treated with PBA (2 mM).

[5] = system: c-Myc promoter; experiment: Percent DNA methylation of c-Myc promoter in human cervical tumors in animals; type: in vivo; settings: animal models of human cervical tumors, 17.5 mg/kg (FIG. 7A)
Method: Animal models of human cervical tumors were untreated, treated with DMSO, treated with 5-AZA or treated with AKB-6899 (17.5 mg/kg).

[6] = system: DNMT-3b; experiment: DNMT-3b transcription in A549 lung cancer cells; type: cell-based, human; settings: A549 cells (FIG. 10B)
Source text: In FIG. 10A, AKB-6899 inhibited DNMT-1, DNMT-3a, and DNMT-3b transcription in a dose-dependent manner in human squamous cell carcinoma lung cancer cells (H1703), in vitro. The DMSO-treated DNMT mRNAs are over 1.0, meaning the level of expression is higher than the housekeeping control gene, CAP1. In FIG. 10B, AKB-6899 inhibited DNMT-3a and DNMT-3b transcription in human adenocarcinoma lung cancer cells (A549). The DMSO-treated DNMT mRNAs are under 1.0, meaning the level of expression is lower than the housekeeping control gene, CAP1.

[7] = system: BEAS-2B cells; experiment: XTT cell survival assay, normal lung epithelial cells; type: cell-based; settings: BEAS-2B normal lung epithelial cells, even at the highest dose (FIG. 13A)
Source text: FIGS. 13A-13B show XTT cell survival assays for normal lung epithelial cells (BEAS-2B) and lung cancer cells (H1703 squamous cell carcinoma and A549 adenocarcinoma) in response to increasing doses of AKB-6899.

[8] = system: PyMT tumor cells; experiment: Trypan Blue cell death check in PyMT tumor cells; type: cell-based; settings: compared to control cells
Method: as §1

O=C(O)CNC(=O)c1ncc(-c2cccc(F)c2)cc1O [AKB-6899, {[5-(3-Fluorophenyl)-3-hydroxypyridine-2-carbonyl]amino}acetic acid]
DNMT-3b mRNA level [1]: no difference
methylation state of DSP promoter CpG islands (in words) ([2]; MDA-MB-231 cells): almost entire demethylation; also recorded: near complete
desmoplakin promoter methylation after treatment ([2]; MDA-MB-231 human triple negative breast cancer cells): 0.38%
DSP promoter unmethylated ([2]; MDA-MB-231 triple negative breast cancer cells, 25 μM (FIG. 3B)): 99.62%
increase in DSP mRNA expression ([3]; PyMT breast tumor-bearing mice, 17.5 mg/kg, vs DMSO/vehicle animals, 17.5 mg/kg): ~118 fold and 118.5 fold
desmoplakin expression from PyMT tumors (in words) ([3]; in vivo, compared to vehicle (FIG. 4B)): significantly increased
demethylation of c-Myc promoter (percent CpG methylation) [4]: increase in demethylation
DNA methylation of c-Myc promoter [5]: completely demethylated
DNMT-3b transcription [6]: inhibited
cell survival [7]: no significant decrease
cell death by Trypan Blue [8]: no cell death
